# Data reported in patent US20240343699A1, “DERIVATIVES OF SUBSTITUTED MORPHOLINES AND USES THEREOF” (Supernus Pharmaceuticals, Inc., priority 2023, published 2024).
# Where “and” joins values, the source holds several entries; their conditions need not be identical. Equal values may be shown once. Read-outs that look alike come from different tables or passages of the source.
# What was measured:
# [1] = Metabolic stability in human intestinal homogenate; type: in vitro ADME; conditions: human intestinal homogenate, 1 μM
# Description: Incubation Buffer (PBK): 50 mM potassium phosphate buffer (PBK) was prepared from 1 M potassium phosphate buffer, pH 7.2. […] The dilution of 1 mM intermediate was prepared from 10 mM stock with 90% methanol/water, then […] working solutions were prepared by diluting the 1 mM intermediates with 50 mM PBK. […] Prior to use, the stock solutions were brought to room temperature and thoroughly mixed. […] Cofactors Solutions: the cofactor solution was made at 10 mM of NADPH (nicotinamide-adenine dinucleotide phosphate, reduced form) in 50 mM PBK buffer.
# (§1) The incubation was carried out in 96-well plates. The intestinal homogenate mixture solution was added to 96-well plates (80 μL/well) in duplicate. […] Reaction was initiated by adding cofactor solution at 10 µL/well. The plates were incubated at 37° C. in a water bath with shaking. […] The final organic solvent content in the incubation was ≤1%.
# At specified time points, i.e., 5, 10, 20, 30 and 60 minutes, NCF60 (no cofactor at 60 min, without adding NADPH replaced with 50 mM PBK buffer) reaction was stopped by adding three volumes of stop solution. The time zero (To) samples were prepared by adding three volumes of stop solution to intestinal homogenate samples, followed by addition of test article or control, and cofactor solution 10 μL/well.
# Subsequently, 100 μL of supernatant was removed from each well, diluted with 100 μL pure water and analyzed by LC/MS/MS.
# A study was conducted to examine the metabolic stability. […] Positive controls: 7-hydroxycoumarin and Testosterone.
# [2] = Protein binding in CD-1 mouse plasma (equilibrium dialysis); conditions: dialysis conditions; no binding reported
# [3] = In vitro stability in human plasma; type: in vitro ADME; conditions: human plasma, 2.0 μM
# Description: Test Article Solutions: COMPOUND A, COMPOUND B and COMPOUND C stock solutions at 10 mM were prepared in dimethyl sulfoxide (DMSO). Further dilution with DMSO was made to prepare 2.0 mM. The working solutions of 50 μM was prepared with 20% MeOH/water. […] Prior to use, the stock solutions were brought to room temperature and thoroughly mixed and prepared same as described above.
# Incubations were conducted in 96-well plate format. The time points defined for this study are 0, 5, 15, 30 and 60 minutes.
# An appropriate volume of plasma from test species were added to a 96-deep well plate, and COMPOUND A, COMPOUND B and COMPOUND C working solution was spiked into the plasma in duplicate to achieve a final concentration of 2.0 μM. For positive controls, the rat plasma was spiked with enalapril, the dog plasma spiked with bisacodyl and the human plasma was spiked with propantheline. All spiked plasma sample plates were incubated in a water bath at 37° C. with shaking.
# At the end of each time point, samples were immediately quenched with three volume of cold quenching solution.
# A study was conducted to examine the plasma stability. Test Compounds: COMPOUND D, COMPOUND E, and Viloxazine. Positive controls: Enalapril and Propantheline.
# [4] = Metabolic stability in dog liver S9; type: in vitro ADME, Beagle dog; conditions: dog liver S9, 1 μM
# Description: Incubation Buffer (PBK): 50 mM potassium phosphate buffer was prepared from 1 M potassium phosphate buffer, pH 7.2. […] The dilution of […] was prepared by 90% methanol/10% DMSO, then 10 μM working solutions were prepared by diluting the 0.1 mM intermediates with 50 mM PBK. […] Prior to use, the stock solutions were brought to room temperature and thoroughly mixed. […] Cofactors Solutions: the mixture of cofactors solution was made at 10 mM of NADPH and 10 mM of UDPGA in PBK buffer.
# as §1, with “liver S9 working solutions were” for “intestinal homogenate mixture solution was”, “mixture” for “solution at”, “μL/well.” for “µL/well.”
# At specified time points, i.e., 5, 10, 20, 30 and 60 minutes, NCF60 (without adding NADPH (Nicotinamide-adenine dinucleotide phosphate, reduced form) and UDPGA (Uridine 5′-diphosphoglucuronic acid trisodium salt) replaced with PBK buffer reaction was stopped by adding three volumes of stop solution. The time zero (To) samples were prepared by adding three volumes of stop solution to liver S9 samples, followed by addition of test article or control, and cofactor mixture solution 10 μL/well.
# Subsequently, 100 μL of supernatant.
# Positive controls: 7-ethoxycoumarin and 7-hydroxycoumarin.
# [5] = target: T1, hNav1.5 (Homo sapiens, UniProt Q14524); experiment: Nav1.5 human sodium ion channel cell based automated patch clamp assay (QPatch HT); conditions: Antagonist
# T1 construct: CYL6004QP2DR
# Description: Electrophysiological assays were conducted to profile five compounds for activities on the ion channel target using the QPatch HT electrophysiological platform.
# CYL6004QP2DR Nav1.5 Human Sodium Ion Channel Cell Based Automated Patch Clamp Assay. Cells were held at −120 mV for 100 ms, stepped to −130 mV for 100 ms, and stepped back to −120 mV for 100 ms to measure the leak current. Na channels exist in a) resting or closed state at −120 mV, b) a transient open state that inactivates to c) inactivated state at −10 mV. Na current inhibition within 1-2 ms of channel opening at −10 mV is open channel inhibition (pulse 1). […] Pulse 1 and 2 are used to investigate drug binding to the open state and inactivated state of the Na channels, respectively. Each concentration of compound was applied for 5 minutes.
# Current amplitudes more than 200 pA at the control stage were analyzed. The amplitude of the current was calculated by measuring the difference between the peak inward current on stepping to −10 mV (i.e. peak of the current) and remaining current at the end of the step. The current was assessed in vehicle control conditions and then at the end of each five (5) minute compound application.
# T1 sequence (Q14524 whole entry): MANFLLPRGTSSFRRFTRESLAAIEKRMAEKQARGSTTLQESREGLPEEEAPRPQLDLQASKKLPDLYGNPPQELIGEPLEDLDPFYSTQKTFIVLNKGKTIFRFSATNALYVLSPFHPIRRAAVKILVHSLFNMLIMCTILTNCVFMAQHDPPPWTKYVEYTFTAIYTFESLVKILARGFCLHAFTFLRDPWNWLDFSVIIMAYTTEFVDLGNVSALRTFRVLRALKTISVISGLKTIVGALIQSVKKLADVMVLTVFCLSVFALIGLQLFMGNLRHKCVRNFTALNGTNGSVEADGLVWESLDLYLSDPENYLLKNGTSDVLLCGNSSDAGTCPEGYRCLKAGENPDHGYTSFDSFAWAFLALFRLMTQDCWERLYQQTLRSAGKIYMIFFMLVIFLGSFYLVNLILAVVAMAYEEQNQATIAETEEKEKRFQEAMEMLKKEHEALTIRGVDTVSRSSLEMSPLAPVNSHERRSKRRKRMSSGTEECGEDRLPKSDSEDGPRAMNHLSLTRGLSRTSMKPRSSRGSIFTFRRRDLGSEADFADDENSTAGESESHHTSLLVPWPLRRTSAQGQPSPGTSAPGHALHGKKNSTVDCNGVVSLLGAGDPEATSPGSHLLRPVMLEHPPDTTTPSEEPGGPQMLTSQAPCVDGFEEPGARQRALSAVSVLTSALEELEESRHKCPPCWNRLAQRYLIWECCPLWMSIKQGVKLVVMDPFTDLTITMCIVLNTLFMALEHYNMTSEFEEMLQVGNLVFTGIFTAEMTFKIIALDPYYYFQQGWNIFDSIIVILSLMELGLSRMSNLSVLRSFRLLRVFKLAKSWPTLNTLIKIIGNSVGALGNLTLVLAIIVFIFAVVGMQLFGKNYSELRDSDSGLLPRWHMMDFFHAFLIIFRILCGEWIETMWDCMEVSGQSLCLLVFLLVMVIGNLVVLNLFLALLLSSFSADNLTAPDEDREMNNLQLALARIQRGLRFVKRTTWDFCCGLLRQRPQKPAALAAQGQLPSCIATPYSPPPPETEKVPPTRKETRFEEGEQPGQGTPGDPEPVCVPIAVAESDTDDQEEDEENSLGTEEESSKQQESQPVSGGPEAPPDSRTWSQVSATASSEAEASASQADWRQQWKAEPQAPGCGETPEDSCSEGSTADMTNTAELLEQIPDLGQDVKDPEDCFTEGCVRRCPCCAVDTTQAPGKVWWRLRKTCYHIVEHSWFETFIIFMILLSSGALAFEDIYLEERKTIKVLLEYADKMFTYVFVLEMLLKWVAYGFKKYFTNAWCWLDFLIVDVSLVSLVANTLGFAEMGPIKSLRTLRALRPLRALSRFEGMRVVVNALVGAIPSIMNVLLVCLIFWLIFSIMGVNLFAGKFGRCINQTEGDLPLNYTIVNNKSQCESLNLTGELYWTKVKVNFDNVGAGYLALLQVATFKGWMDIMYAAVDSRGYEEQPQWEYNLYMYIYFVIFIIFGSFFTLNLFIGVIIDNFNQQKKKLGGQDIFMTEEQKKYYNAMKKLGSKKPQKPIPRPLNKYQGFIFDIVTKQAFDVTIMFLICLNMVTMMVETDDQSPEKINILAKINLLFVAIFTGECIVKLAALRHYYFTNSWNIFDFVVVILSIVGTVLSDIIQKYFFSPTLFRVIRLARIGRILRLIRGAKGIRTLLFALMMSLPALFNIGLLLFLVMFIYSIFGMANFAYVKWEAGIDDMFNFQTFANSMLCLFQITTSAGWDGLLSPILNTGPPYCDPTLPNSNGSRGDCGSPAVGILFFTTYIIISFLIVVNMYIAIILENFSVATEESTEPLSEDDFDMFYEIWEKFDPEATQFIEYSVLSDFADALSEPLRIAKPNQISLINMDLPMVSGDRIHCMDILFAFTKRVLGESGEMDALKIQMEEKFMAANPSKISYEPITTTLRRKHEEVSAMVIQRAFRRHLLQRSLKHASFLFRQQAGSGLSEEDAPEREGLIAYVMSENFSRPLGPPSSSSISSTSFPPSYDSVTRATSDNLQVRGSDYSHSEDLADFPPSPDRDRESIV
smiles,measurement,setting,value
CCOc1ccccc1OC[C@@H]1CN(C(=O)OC(OC(=O)[C@H](N)C(C)C)C(C)C)CCO1 (stereo partly shown) [COMPOUND C],% Remaining,[1]; 0 min,100%
same,Analyte Peak area/IS Peak area Mean (n = 2),[1]; 0 min,0.286
same,% Remaining,[1]; 5 min,4.4%
same,Analyte Peak area/IS Peak area Mean (n = 2),[1]; 5 min,0.013
same,% Remaining,[1]; 10 min,3.0%
same,Analyte Peak area/IS Peak area Mean (n = 2),[1]; 10 min,0.009
same,% Remaining,[1]; 20 min,1.3%
same,Analyte Peak area/IS Peak area Mean (n = 2),[1]; 20 min,0.004
same,% Remaining,[1]; 30 min,0.67%
same,Analyte Peak area/IS Peak area Mean (n = 2),[1]; 30 min,0.002
same,% Remaining,[1]; 60 min,0.08%
same,Analyte Peak area/IS Peak area Mean (n = 2),[1]; 60 min,0.000
same,% Remaining,[1]; NCF60 (no cofactor at 60 min),0.12%
same,Analyte Peak area/IS Peak area Mean (n = 2),[1]; NCF60 (no cofactor at 60 min),0.000
same,half-life at 1 μM,[1]; pH 7.2,7.2 min
same,microsomal CLint at 1 μM,"[1]; pH 7.2, read-out: CLint(HIH)",192 µL/min/mg
same,stability in the mouse plasma,[2],instability
same,half-life at 2 μM,[3],> 187 min
same,% Remaining,[3]; 0 min,100%
same,Analyte Peak area/IS Peak area Mean (N = 2),[3]; 0 min,1.99
same,% Remaining,[3]; 5 min,92.3%
same,Analyte Peak area/IS Peak area Mean (N = 2),[3]; 5 min,1.84
same,% Remaining,[3]; 15 min,88.3%
same,Analyte Peak area/IS Peak area Mean (N = 2),[3]; 15 min,1.76
same,% Remaining,[3]; 30 min,86.1%
same,Analyte Peak area/IS Peak area Mean (N = 2),[3]; 30 min,1.71
same,% Remaining,[3]; 60 min,84.4%
same,Analyte Peak area/IS Peak area Mean (N = 2),[3]; 60 min,1.68
same,half-life at 1 μM,"[4]; Beagle, pH 7.2",12 min
same,microsomal CLint at 1 μM,"[4]; Beagle, pH 7.2, read-out: CLint(LS9)",115 µL/min/mg
same,% Remaining,[4]; 0 min,100%
same,Analyte Peak area/IS Peak area Mean × 100 (n = 2),[4]; 0 min,8.27
same,% Remaining,[4]; 5 min,17%
same,Analyte Peak area/IS Peak area Mean × 100 (n = 2),[4]; 5 min,1.44
same,% Remaining,[4]; 10 min,12%
same,Analyte Peak area/IS Peak area Mean × 100 (n = 2),[4]; 10 min,0.962
same,% Remaining,[4]; 20 min,8.7%
same,Analyte Peak area/IS Peak area Mean × 100 (n = 2),[4]; 20 min,0.720
same,% Remaining,[4]; 30 min,6.1%
same,Analyte Peak area/IS Peak area Mean × 100 (n = 2),[4]; 30 min,0.501
same,% Remaining,[4]; 60 min,1.41% and 1.4%
same,Analyte Peak area/IS Peak area Mean × 100 (n = 2),[4]; 60 min,0.116
same,% Remaining,"[4]; NCF60 (no cofactors, 60 min)",5.1%
same,Analyte Peak area/IS Peak area Mean × 100 (n = 2),"[4]; NCF60 (no cofactors, 60 min)",0.418
same,IC50,"[5]; Pulse 1 (open state), read-out: Estimated IC50 (Pulse 1)",> 100 µM
same,IC50,"[5]; Pulse 2 (inactivated state), read-out: Estimated IC50 (Pulse 2)",8.5 µM
